Experimental data from publication PMC4207412, “Secondary Structural Preferences of Some Antibacterial Cyclooctapeptides in the Presence of Calcium(II)” (International Journal of Medicinal Chemistry, 2012).
Read-outs that look alike come from different tables or passages of the source. Square brackets hold non-standard residues; d marks the D form. Peptide text beside a SMILES is read from it.

Legend:
[1] = Isothermal titration calorimetry of Ca2+ binding in 10% acetonitrile in water; details: ITC, 30°C, no DPC, peptide 0.15 or 0.30 mM, Ca(ClO4)2 9 to 15 mM in syringe, one-site model, mean of three experiments ± standard error mean
Procedure: (§1) Microcalorimetric titrations of peptides with metal ions were conducted by isothermal titration microcalorimetry (ITC) using a Microcal VP-ITC Instrument (Northampton, MA, USA). Experiments were carried out at 30°C in 10% acetonitrile in water. The peptide concentration was 0.15 or 0.30 mM (1.34 mL sample cell), and the metal ion [Ca(ClO4)2] concentration was varied from 9 to 15 mM in the syringe. Automated titrations were conducted until saturation, up to a Ca^2+/peptide mole ratio of about 12 : 1. Heats of dilution and mixing for each experiment were measured by titrating calcium(II) solution into 10% acetonitrile solution. The effective heat of each peptide and calcium(II) interaction was corrected for dilution and mixing effects by subtracting the enthalpy change derived from the titration of calcium(II) solution into the 10% acetonitrile solution without the peptide. In a similar way, ITC experiments were carried out at 30°C in 10% aqueous acetonitrile containing 10 mM DPC. These heats of bimolecular interactions were obtained by integrating the peak following each injection of calcium(II). The binding isotherms were derived from the raw ITC data following correction for dilution and mixing effects. These isotherms were fitted using the one-site model by a nonlinear least square analysis with Microcal Origin 7.0 software (Microcal Software, Inc., Northampton, MA, USA) to determine the molar enthalpy change for binding, ΔH, and the corresponding binding constant, K b. From these values, the thermodynamic characterization of the interaction at 30°C was determined from the fundamental equations of thermodynamics, ΔG = −RT ln K b and ΔS = (ΔH − ΔG)/T.

[2] = tested on: Escherichia coli ATCC 25922; type: cell-based
Procedure: (§2) Microbiological studies were performed on Escherichia coli ATCC 25922 and Staphylococcus aureus ATCC 10566 (American Type Culture Collection (ATCC), Rockville, MD, USA) using carefully standardized conditions. A suspension of the bacteria (in exponential phase of growth) was prepared and then diluted to yield a final concentration of approximately 1 × 10^5 colony forming units (cfu) per milliliter. Stock peptides were dissolved in 9% sucrose solutions containing 5% dimethyl sulfoxide. The 96-well microtiter tray containing the bacterial cultures and peptides was incubated for 18 hrs at 35°C. […] All tests were conducted in triplicate and the reported MIC values were derived from at least three independent experiments.
(§3) COP 4–9 were then designed to include a glutamyl residue to reduce the overall cationic charges on these amphipathic cyclopeptides. […] A lysine residue in COP 4 was sequentially substituted with histidine in COP 5, cysteine in COP 6, and leucine in COP 7. […] As the net positive charges of the cyclopeptide decreased, antimicrobial activity decreased by fourfold (see COP 6). […] The decreasing antimicrobial activities of these cyclopeptides could be attributed to their diminishing cationic character and an inadequate balance of amphipathic residues in their sequences. These structurally similar cyclopeptides (COP 1–9) were subsequently evaluated for calcium(II) binding affinity by ITC and assessed for conformational changes upon calcium(II) binding by circular dichroism (CD).

[3] = tested on: Staphylococcus aureus ATCC 10566; type: cell-based
Procedure: as §2, §3

[4] = Isothermal titration calorimetry of Ca2+ binding in micellar DPC (10 mM); details: ITC, 30°C, 10% aqueous acetonitrile containing 10 mM micellar DPC; one-site model; mean of three experiments ± standard error mean
Procedure: as §1
In order to mimic the hydrophobic environment of the bacterial membrane that antimicrobial peptides commonly target, the interactions of these cyclopeptides with calcium(II) were also conducted in the presence of micellar dodecylphosphocholine (DPC). […] However, their association is compensated by an increase in entropy (ΔS values range from ca. 42.7 to 66.5 JK^−1 mol^−1). This entropy/enthalpy compensation could be attributed to a greater degree of dehydration of the hydration spheres around the cyclopeptide molecules and calcium ions following complex formation in the hydrophobic micellar DPC environment. However, there is no significant trend in the enthalpy or entropy changes following calcium(II) binding in the presence of micellar DPC.

[5] = Mueller-Hinton microbroth dilution, ca. 1 × 10^5 cfu/mL, 18 hrs at 35°C, visual turbidity, range tested 256 to 2 μg/mL, triplicate, at least three independent experiments

What does the source list for CC(C)C[C@@H]1NC(=O)[C@@H](CCCCN)NC(=O)[C@H](CCCCN)NC(=O)[C@@H](CCCCN)NC(=O)[C@H](CCCCN)NC(=O)[C@@H](CC(C)C)NC(=O)[C@H](CC(C)C)NC(=O)[C@@H](CC(C)C)NC1=O [COP 1] (cyclo(K[dK]K[dK]L[dL]L[dL]))?
Binding affinity for Ca^2+ K b [1]: (3.4 ± 0.6) × 10^3 M^−1; E. coli ATCC 25922 MIC [2, 5]: 16 µg/mL; S. aureus ATCC 10566 MIC [3, 5]: 8 µg/mL

With CC(C)C[C@@H]1NC(=O)[C@@H](CC(C)C)NC(=O)[C@H](CCC(=O)O)NC(=O)[C@@H](CCCCN)NC(=O)[C@H](CCCCN)NC(=O)[C@@H](CCCCN)NC(=O)[C@H](CS)NC(=O)[C@@H](CC(C)C)NC1=O [COP 6] (cyclo(C[dK]K[dK]E[dL]L[dL])) as the compound, how does the “Binding affinity for Ca^2+ K b” value [1] read?
Its value is “(6.4 ± 2.8) × 10^3 M^−1”.

What about the “E. coli ATCC 25922 MIC” value ([2]; ATCC 25922, 18 h) of the same compound?
Its value is 128 µg/mL.

What about the “S. aureus ATCC 10566 MIC” value ([3]; ATCC 10566, 18 h) of the same compound?
The value was 128 µg/mL.

And the “Binding affinity for Ca^2+ K b” value [4]?
The value was “(4.9 ± 0.7) × 10^3 M^−1”.

With CC(C)C[C@@H]1NC(=O)[C@@H](CC(C)C)NC(=O)[C@H](CCC(=O)O)NC(=O)[C@@H](CCCCN)NC(=O)[C@H](CCCCN)NC(=O)[C@@H](CCCCN)NC(=O)[C@H](Cc2c[nH]cn2)NC(=O)[C@@H](CC(C)C)NC1=O [COP 5] (cyclo(E[dL]L[dL]H[dK]K[dK])) as the compound, how does the “Binding affinity for Ca^2+ K b” value [1] read?
Its value is “(5.3 ± 1.4) × 10^3 M^−1”.

What about the “E. coli ATCC 25922 MIC” value ([2]; ATCC 25922, 18 h) of the same compound?
Its value is 32 µg/mL.

And the “S. aureus ATCC 10566 MIC” value ([3]; ATCC 10566, 18 h)?
The value was 128 µg/mL.

And the “Binding affinity for Ca^2+ K b” value [4]?
Its value is “(5.4 ± 0.6) × 10^3 M^−1”.

Which “Binding affinity for Ca^2+ K b” value [1] does the source give for CC(C)C[C@@H]1NC(=O)[C@@H](CC(C)C)NC(=O)[C@H](CC(C)C)NC(=O)[C@@H](CCCCN)NC(=O)[C@H](CCCCN)NC(=O)[C@@H](CCCCN)NC(=O)[C@H](CCCCN)NC(=O)[C@@H](Cc2c[nH]c3ccccc23)NC1=O [COP 2] (cyclo(K[dK]K[dK]L[dL]L[dW])) here?
Its value is “(4.8 ± 1.3) × 10^3 M^−1”.

What about the “E. coli ATCC 25922 MIC” value [2, 5] of the same compound?
Its value is 16 µg/mL.

What about the “S. aureus ATCC 10566 MIC” value [3, 5] of the same compound?
The value was 8 µg/mL.

With CC(C)C[C@@H]1NC(=O)[C@@H](CC(C)C)NC(=O)[C@H](CCC(=O)O)NC(=O)[C@@H](CCCCN)NC(=O)[C@H](CCCCN)NC(=O)[C@@H](CCCCN)NC(=O)[C@H](CCCCN)NC(=O)[C@@H](CC(C)C)NC1=O [COP 4] (cyclo(E[dL]L[dL]K[dK]K[dK])) as the compound, how does the “Binding affinity for Ca^2+ K b” value [1] read?
The value was “(3.1 ± 0.7) × 10^3 M^−1”.

And the “E. coli ATCC 25922 MIC” value [2, 5]?
The value was 16 µg/mL.

What about the “S. aureus ATCC 10566 MIC” value [3, 5] of the same compound?
Its value is 32 µg/mL.

And the “Binding affinity for Ca^2+ K b” value [4]?
The value was “(4.7 ± 1.1) × 10^3 M^−1”.

With CC(C)C[C@@H]1NC(=O)[C@@H](CC(C)C)NC(=O)[C@H](CCCCN)NC(=O)[C@@H](CCCCN)NC(=O)[C@H](CCCCN)NC(=O)[C@@H](CCCCN)NC(=O)[C@H](CS)NC(=O)[C@@H](CC(C)C)NC1=O [COP 3] (cyclo(C[dK]K[dK]K[dL]L[dL])) as the compound, how does the “Binding affinity for Ca^2+ K b” value [1] read?
The value was “(7.9 ± 2.8) × 10^3 M^−1”.

What about the “E. coli ATCC 25922 MIC” value ([2]; ATCC 25922, 18 h) of the same compound?
The value was 16 µg/mL.

What about the “S. aureus ATCC 10566 MIC” value ([3]; ATCC 10566, 18 h) of the same compound?
Its value is 16 µg/mL.

And the “Binding affinity for Ca^2+ K b” value [4]?
The value was “(3.3 ± 0.3) × 10^3 M^−1”.

For CC(C)C[C@@H]1NC(=O)[C@@H](CC(C)C)NC(=O)[C@H](CC(C)C)NC(=O)[C@@H](CC(C)C)NC(=O)[C@H](CCC(=O)O)NC(=O)[C@@H](CCCCN)NC(=O)[C@H](CCCCN)NC(=O)[C@@H](CCCCN)NC1=O [COP 7] (cyclo(E[dL]L[dL]L[dK]K[dK])), which “Binding affinity for Ca^2+ K b” value [1] is on record?
The value was “(8.0 ± 1.2) × 10^3 M^−1”.

And the “E. coli ATCC 25922 MIC” value ([2]; ATCC 25922, 18 h)?
The value was over 256 µg/mL.

What about the “S. aureus ATCC 10566 MIC” value ([3]; ATCC 10566, 18 h) of the same compound?
Its value is over 256 µg/mL.

What about the “Binding affinity for Ca^2+ K b” value [4] of the same compound?
The value was “(4.7 ± 1.0) × 10^3 M^−1”.

Which “Binding affinity for Ca^2+ K b” value [1] does the source give for CC(C)C[C@@H]1NC(=O)[C@@H](CC(C)C)NC(=O)[C@H](CCC(=O)O)NC(=O)[C@@H](CCCCN)NC(=O)[C@H](Cc2c[nH]cn2)NC(=O)[C@@H](CCCCN)NC(=O)[C@H](Cc2c[nH]cn2)NC(=O)[C@@H](CC(C)C)NC1=O [COP 8] (cyclo(E[dL]L[dL]H[dK]H[dK])) here?
The value was “(4.9 ± 0.3) × 10^3 M^−1”.

What about the “E. coli ATCC 25922 MIC” value ([2]; ATCC 25922, 18 h) of the same compound?
The value was over 256 µg/mL.

And the “S. aureus ATCC 10566 MIC” value ([3]; ATCC 10566, 18 h)?
Its value is over 256 µg/mL.

And the “Binding affinity for Ca^2+ K b” value [4]?
The value was “(4.4 ± 0.02) × 10^3 M^−1”.

For CC(C)C[C@@H]1NC(=O)[C@@H](CC(C)C)NC(=O)[C@H](CCC(=O)O)NC(=O)[C@@H](CCCCN)NC(=O)[C@H](CCCCN)NC(=O)[C@@H](CCCCN)NC(=O)[C@H](CCC(=O)O)NC(=O)[C@@H](CC(C)C)NC1=O [COP 9] (cyclo(E[dK]K[dK]E[dL]L[dL])), which “Binding affinity for Ca^2+ K b” value [1] is on record?
Its value is “(5.4 ± 1.2) × 10^3 M^−1”.

What about the “E. coli ATCC 25922 MIC” value ([2]; ATCC 25922, 18 h) of the same compound?
The value was over 256 µg/mL.

And the “S. aureus ATCC 10566 MIC” value ([3]; ATCC 10566, 18 h)?
Its value is over 256 µg/mL.

What about the “Binding affinity for Ca^2+ K b” value [4] of the same compound?
The value was “(4.1 ± 0.03) × 10^3 M^−1”.
